Source: patent US20220288156A1, “TREATMENT” (QUEEN MARY UNIVERSITY OF LONDON, priority 2019, published 2022)

Columns and labels:
Myh7 = Myh7 transcript expression by RT-qPCR, whole heart preparations; type: in vivo, mouse; details: FIG. 10: whole heart, AAC surgery, ldCil 3 weeks after surgery, normalised to Gapdh
From the text: Male C57BL6 mice (Charles River) underwent AAC surgery at 4-5 weeks of age (between 20 and 22 g). Mice were anaesthetised with isoflurane, placed in a supine position on the procedure table, and an incision made along the ventral underbelly, extending from the xiphoid process of the sternum, down to the groin to reveal the abdominal muscle. The abdominal muscle was then cut the same distance along the linea alba to allow easy reattachment of the two halves. The two sides of the abdominal muscles were clipped back to reveal the abdominal gastrointestinal organs, and these were carefully manoeuvred to expose the underlying abdominal aorta. The aorta was cleaned of visceral fats, and carefully separated from parallel vasculature, whilst avoiding any spinal nerves. […] Hearts were halved longitudinally and either snap frozen in liquid nitrogen (for immunohistochemistry) or stored in an RNA later stabilisation solution (for RT-quantitative PCR) (ThermoFisher Scientific, Hertfordshire, UK). […]
Complementary DNA (cDNA) synthesis was carried out using the Applied Biosystems High Capacity cDNA Reverse Transcription (RT) Kit on a thermal cycler as per the manufacturer's instructions. cDNA was made up to a total quantity of either 600 (most mouse tissue and/or cells), or 1000 ng (human heart tissue). […]

[1] = system: AAC model of heart failure; assay: Cardiac hypertrophy in AAC model (WGA cardiomyocyte perimeter, heart:body weight); type: in vivo, mouse; details: intervention mode, AAC surgery
From the text: Male C57BL6 mice (Charles River) underwent AAC surgery at 4-5 weeks of age (between 20 and 22 g). Mice were anaesthetised with isoflurane, placed in a supine position on the procedure table, and an incision made along the ventral underbelly, extending from the xiphoid process of the sternum, down to the groin to reveal the abdominal muscle. The abdominal muscle was then cut the same distance along the linea alba to allow easy reattachment of the two halves. The two sides of the abdominal muscles were clipped back to reveal the abdominal gastrointestinal organs, and these were carefully manoeuvred to expose the underlying abdominal aorta. […] Hearts were halved longitudinally and either snap frozen in liquid nitrogen (for immunohistochemistry) or stored in an RNA later stabilisation solution (for RT-quantitative PCR) (ThermoFisher Scientific, Hertfordshire, UK).
5 μm snap-frozen sections were fixed in 10% acetone, washed in phosphate buffered saline, PBS, blocked in 5% normal goat serum/PBS for 1 h at room temperature and incubated with WGA directly conjugated to Alexa Fluor 488 (Invitrogen) (1:100) in blocking buffer (5% normal goat serum/PBS) for 2 h at room temperature. […] Images were taken with a Zeiss Axioplan microscope, and the cardiomyocyte size was analysed with ImageJ™ software. 100-200 cells per heart were measured to determine cardiomyocyte size.

CC(C)[C@H]1C(=O)N[C@@H](CCCN=C(N)N)C(=O)NCC(=O)N[C@@H](CC(=O)O)C(=O)N[C@H](Cc2ccccc2)C(=O)N1C [Cilengitide, c(f*VRGD)]
Myh7 levels (Myh7): restored Myh7 levels back to untreated levels | heart:body weight ratio [1]: blunted increases | cardiomyocyte perimeter (WGA stained sections) ([1]; compared with vehicle): reduced
